{"source": "patent US11390637B2", "about": "“Salts of antiviral phosphonate analogues and process for preparation thereof” (CIPLA LIMITED, priority 2017, dated 2022)", "key": {"[1]": {"test": "In-vitro intrinsic dissolution of 200 mg pellets of API without excipients", "format": "physicochemical", "conditions": "Table 8, 200 mg pellet, 0.01N HCl, 37° C., paddle 75 rpm", "experimental": "A tableting mixture (200 mg) comprising solely salts of (((1-(6-amino-9H-purin-9-yl)propan-2-yloxy)methyl) (phenoxy) phosphoryloxy) methyl pivalate-prepared according to any one of the examples 1 to 10 (i.e. with no excipients) was prepared and compressed to a pellet using an automatic KBR press operating at a compression pressure of 2 tones for 2 minutes.\nSimilarly a tableting mixture (200 mg) comprising a solely TAF (i.e. with no excipients) was prepared and compressed to a pellet using an automatic KBR press operating at a compression pressure of 2 tones for 2 minutes.\nA tableting mixture (200 mg) comprising solely TDF (i.e. with no excipients) was prepared and compressed to a pellet using an automatic KBR press operating at a compression pressure of 2 tones for 2 minutes.\nIn-vitro dissolution studies were performed on the 200 mg pellet in a LAB INDIA DISSO 2000.\nThe pellet was fixed in a PFTE holder, such that only the pellet surface came into contact with the dissolution medium. The PFTE loaded holder was placed in the dissolution vessel containing 900 ml of 0.1M of HCl having […] at 37±0.5° C. Two pellets were measured for each run of the design of the experiments. Stirring was performed with a paddle rotating at 75 rpm. […]\nDissolution Media: 0.01N HCl\nBath temperature: 37.5° C.\nSample Preparation: Pellets were prepared by pressing sample with 2 ton pressure for 2 min\nNote: Aliquots were analysed on HPLC.\nThe concentration of (((1-(6-amino-9H-purin-9-yl)propan-2-yloxy)methyl) (phenoxy) phosphoryloxy) methyl pivalate was quantified by HPLC UV method at a maximum wavelength of 300 nm under the conditions as specified below:\nStandard Preparation: 25 mg standard dissolved to 25 ml with dissolution medium. 5 ml of this solution diluted to 25 ml with dissolution medium. Further 5 ml of this solution was diluted to 10 ml with diluent.\nSample Preparation: 200 mg of Sample pellets were prepared and subjected to dissolution. 10 ml of Aliquot was removed from the dissolution basket at predetermined time intervals. 5 ml of these aliquot was diluted to 10 ml with Diluent.\n200 mg of input API of fumarate salt of (((1-(6-amino-9H-purin-9-yl)propan-2-yloxy)methyl) (phenoxy) phosphoryloxy) methyl pivalate used for pellet preparation.\nThe percentage of (((1-(6-amino-9H-purin-9-yl)propan-2-yloxy)methyl) (phenoxy) phosphoryloxy) methyl pivalate (TD), Tenofovir Alafenamide (TAF) and Tenofovir Disoproxil (TDF) released from the respective fumarate salt tablet were plotted against time as shown in FIG. 19. The intrinsic dissolution rate was derived from the slope of this curve.\nTo measure the intrinsic dissolution of the Salts of (((1-(6-amino-9H-purin-9-yl)propan-2-yloxy)methyl) (phenoxy) phosphoryloxy) methyl pivalate, samples were measured to compare the influence of the different parameter settings. At appropriate time intervals, an automated sample collector removes aliquots from the dissolution medium for analysis. The time interval for sampling can vary, for example, from 5 to 120 minutes, depending on the properties of the drug and dissolution medium used. Suitable dissolution equipment for these operations includes LAB INDIA DISSO 2000. Bath temperature—37.5° C.\n200 mg of input API of each fumarate, oxalate, phosphate, citrate, succinate and tartrate Salts of (((1-(6-amino-9H-purin-9-yl)propan-2-yloxy)methyl) (phenoxy) phosphoryloxy) methyl pivalate used for pellet preparation.\nThe percentage of (((1-(6-amino-9H-purin-9-yl)propan-2-yloxy)methyl) (phenoxy) phosphoryloxy) methyl pivalate released from the respective salts tablet were plotted against time as shown in FIG. 20. The intrinsic dissolution rate was derived from the slope of this curve."}, "[2]": {"test": "Hygroscopicity (statement, no method described)", "format": "physicochemical", "conditions": "in words"}, "[3]": {"test": "Solubility in physiologically acceptable solvents (statement, no method described)", "conditions": "in words"}}}
{"smiles": "CC(Cn1cnc2c(N)ncnc21)OCP(=O)(OCOC(=O)C(C)(C)C)Oc1ccccc1.O=C(O)CCC(=O)O", "note": "(stereo not shown) [Succinate, (((1-(6-amino-9H-purin-9-yl)propan-2-yloxy)methyl) (phenoxy)phosphoryloxy) methyl pivalate succinic acid salt]", "values": [{"measurement": "% release of Compound (I) from the respective Salts", "setting": "[1]; 5 min", "result": 3, "unit": "%"}, {"measurement": "% release of Compound (I) from the respective Salts", "setting": "[1]; 15 min", "result": 3, "unit": "%"}, {"measurement": "% release of Compound (I) from the respective Salts", "setting": "[1]; 30 min", "result": 16, "unit": "%"}, {"measurement": "% release of Compound (I) from the respective Salts", "setting": "[1]; 45 min", "result": 23, "unit": "%"}, {"measurement": "% release of Compound (I) from the respective Salts", "setting": "[1]; 60 min", "result": 30, "unit": "%"}, {"measurement": "% release of Compound (I) from the respective Salts", "setting": "[1]; 90 min", "result": 45, "unit": "%"}, {"measurement": "% release of Compound (I) from the respective Salts", "setting": "[1]; 120 min", "result": 59, "unit": "%"}, {"measurement": "% release of Compound (I) from the respective Salts", "setting": "[1]; 150 min", "result": 74, "unit": "%"}, {"measurement": "% release of Compound (I) from the respective Salts", "setting": "[1]; 180 min", "result": 85, "unit": "%"}, {"measurement": "% release of Compound (I) from the respective Salts", "setting": "[1]; 210 min", "result": 90, "unit": "%"}, {"measurement": "% release of Compound (I) from the respective Salts", "setting": "[1]; 240 min", "result": 92, "unit": "%"}, {"measurement": "hygroscopicity", "setting": "[2]", "result": "not hygroscopic"}, {"measurement": "solubility in physiologically acceptable solvents", "setting": "[3]", "result": "readily soluble"}]}
